What was measured:
[1] = tested on: CCRF-CEM leukemia cells; assay: CCRF-CEM ASNase cell proliferation assay, phenotypic assay for cellular inhibition of GCN2; format: cell-based; details: Homo sapiens; ASNase treated CCRF-CEM cells, 1 mU/mL ASNase, 72 h
Procedure: CCRF-CEM leukemia cells (catalog #CCL-116) were obtained from the American Type Culture Collect (ATTC, Manassas, VA). Cells were grown in RPMI-1640 medium supplemented with 10% heat-inactivated fetal bovine serum (Invitrogen, Carlsbad, CA) and 1% Penicillin/Streptomycin/L-Glutamine at 37° C., 5% CO2, and 95% humidity. Cells were expanded until reaching one million cells per mL at which time they are subcultured or harvested for assay use. Ten thousand cells per well in 200 μL RPMI-1640 supplemented with 10% heat-inactivated fetal bovine serum and 1% Penicillin/Streptomycin were dispensed into a 96-well black clear bottom plate. A serial dilution of test compound and 1 mU/mL ASNase was added in triplicate and plates were incubated for 72 h at 37° C., 5% CO2, and 95% humidity. At the end of the incubation, 40 μL of a […] solution of resazurin (Sigma, St. Louis, MO) in PBS was added to each well of the plate and plates were incubated for an additional 6 h at 37° C., 5% CO2, and 95% humidity. Plates were read on a Synergy2 or equivalent reader (Biotek, Winooski VT) using an excitation of 540 nm and an emission of 600 nm. Data was analyzed using GraphPad Prism software (GraphPad, San Diego, CA) to calculate IC50 values.

[2] = tested on: phospho-GCN2 (Thr899) in HCT116 colorectal cancer cells; assay: HCT116 amino acid starved (-AA) phospho-GCN2 assay (Western blot); format: cell-based; details: Homo sapiens, HCT-116, 4 h, read-out: HCT116-AA pGCN2 Western Blot
Procedure: (§1) HCT116 colorectal cancer cells (catalog #CCL-247) were obtained from the American Type Culture Collect (ATTC, Manassas, VA). Briefly, cells were grown in RPMI 1640 supplemented with 10% heat inactivated fetal bovine serum (Invitrogen, Carlsbad, CA) and 1% Penicillin/Streptomycin/L-Glutamine at 37° C., 5% CO2, and 95% humidity. Cells were expanded until reaching 70-95% confluency at which point they were subcultured or harvested for assay use. Cells were seeded in 12-well culture plate at five hundred thousand cells per well in 1 mL complete growth medium and incubated overnight at 37° C., 5% CO2, and 95% humidity. The next day each well was replaced with 1 mL Earle's Balanced Salt Solution (EBSS, Invitrogen, Carlsbad, CA) supplemented with 10% Dialyzed Fetal Bovine Serum, 5.5 mM Glucose, 1% Penicillin/Streptomycin and 1% Vitamin solution (thermo #11120052). A serial dilution of test compound was dispensed into well. Plates were incubated for 4 h at 37° C., 5% CO2, and 95% humidity. At the end of the incubation, cells were washed with PBS supplemented with 1× Halt protease inhibitor, 1× Halt phosphatase inhibitor, 1× Sigma phosphatase inhibitor cocktail 2 and 1×EDTA and then lysed with M-PER Mammalian Protein Extraction Reagent supplemented with 3× of the inhibitor mix as described above. Cell lysates were sonicated with water bath sonicator (Qsonica, Newtown, CT) and supernatants were boiled with SDS buffer and reducing agent. Western blot was performed on each lysate to quantify phospho-GCN2 (Thr899), total GCN2, ATF4 and beta-Actin. Membranes were imaged with LI-COR Odyssey CLx Imaging System (LI-COR, Lincoln, NE). Data were analyzed using GraphPad Prism software (GraphPad, San Diego, CA) to calculate IC50 values.

[3] = target: GCN2 kinase (Homo sapiens (Human), UniProt Q9P2K8); assay: Biochemical assay for GCN2 (TR-FRET kinase activity assay); details: 1 mM ATP, 3-hour incubation
Sequence of GCN2 kinase (Q9P2K8 whole entry): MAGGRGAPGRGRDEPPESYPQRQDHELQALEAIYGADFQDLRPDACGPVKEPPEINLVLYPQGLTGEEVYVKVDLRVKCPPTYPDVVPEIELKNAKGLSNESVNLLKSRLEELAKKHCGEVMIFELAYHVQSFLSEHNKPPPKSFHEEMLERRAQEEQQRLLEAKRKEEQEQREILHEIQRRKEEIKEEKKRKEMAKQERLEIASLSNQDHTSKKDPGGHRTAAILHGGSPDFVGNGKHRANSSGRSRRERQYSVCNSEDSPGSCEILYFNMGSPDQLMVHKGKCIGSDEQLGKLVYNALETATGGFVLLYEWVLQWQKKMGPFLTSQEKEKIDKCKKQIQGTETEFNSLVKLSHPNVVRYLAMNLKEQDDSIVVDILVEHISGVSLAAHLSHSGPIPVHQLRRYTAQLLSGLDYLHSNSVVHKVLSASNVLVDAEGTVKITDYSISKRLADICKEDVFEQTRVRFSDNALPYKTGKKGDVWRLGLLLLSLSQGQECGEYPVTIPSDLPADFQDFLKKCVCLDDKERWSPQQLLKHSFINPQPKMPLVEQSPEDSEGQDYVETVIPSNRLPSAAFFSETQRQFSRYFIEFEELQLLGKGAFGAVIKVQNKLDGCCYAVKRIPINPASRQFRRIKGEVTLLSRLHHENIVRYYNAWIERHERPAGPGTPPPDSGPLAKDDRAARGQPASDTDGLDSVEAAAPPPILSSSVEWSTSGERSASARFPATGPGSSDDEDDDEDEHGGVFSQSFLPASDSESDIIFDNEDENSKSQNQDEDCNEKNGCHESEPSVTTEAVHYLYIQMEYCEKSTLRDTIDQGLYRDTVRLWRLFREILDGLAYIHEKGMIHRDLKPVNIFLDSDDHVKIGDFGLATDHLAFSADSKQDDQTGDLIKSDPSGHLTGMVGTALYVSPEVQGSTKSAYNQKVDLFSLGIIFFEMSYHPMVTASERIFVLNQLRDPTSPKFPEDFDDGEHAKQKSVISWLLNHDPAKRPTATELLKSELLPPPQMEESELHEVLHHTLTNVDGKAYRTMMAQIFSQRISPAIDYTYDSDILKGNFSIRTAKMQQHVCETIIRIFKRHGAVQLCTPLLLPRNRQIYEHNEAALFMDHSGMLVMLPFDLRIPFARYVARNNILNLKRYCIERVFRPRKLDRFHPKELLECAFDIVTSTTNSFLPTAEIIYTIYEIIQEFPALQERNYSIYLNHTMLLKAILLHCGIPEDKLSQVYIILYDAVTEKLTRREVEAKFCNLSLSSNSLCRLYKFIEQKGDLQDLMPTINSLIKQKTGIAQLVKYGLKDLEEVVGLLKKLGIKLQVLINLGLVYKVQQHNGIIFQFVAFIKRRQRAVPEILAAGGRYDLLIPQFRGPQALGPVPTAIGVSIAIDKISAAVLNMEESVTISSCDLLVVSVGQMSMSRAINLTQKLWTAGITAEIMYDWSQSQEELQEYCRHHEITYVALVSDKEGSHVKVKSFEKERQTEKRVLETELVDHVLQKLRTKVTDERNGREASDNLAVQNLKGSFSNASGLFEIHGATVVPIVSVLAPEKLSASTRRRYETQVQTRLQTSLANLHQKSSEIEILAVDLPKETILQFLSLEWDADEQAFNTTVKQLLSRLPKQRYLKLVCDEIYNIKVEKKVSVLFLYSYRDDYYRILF
Outline: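 TR-FRET assay with 2 nM GCN2, 130 nM GFP-eIF2α substrate, 0.2 mg/mL E. coli tRNA and 1 mM ATP; compounds (0.5% DMSO) reacted 3 h. Stopped with 20 mM EDTA plus 2 nM Tb-anti-peIF2α (pSer52), 60 min RT; 520/490 ratio converted to % inhibition, IC50 from four-parameter fit.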

[4] = tested on: ATF4 in HCT116 colorectal cancer cells; assay: HCT116 amino acid starved (-AA) ATF4 assay (Western blot); format: cell-based; details: Homo sapiens, HCT-116, 4 h
Procedure: as §1

[5] = target: PERK kinase (Homo sapiens (Human), UniProt Q9NZJ5); assay: Biochemical assay for PERK (coupled pyruvate kinase/lactate dehydrogenase assay); details: 1 mM ATP, rate from 2-3 h time frame
Sequence of PERK kinase (Q9NZJ5 other isoform, or with tags, fused parts or gaps): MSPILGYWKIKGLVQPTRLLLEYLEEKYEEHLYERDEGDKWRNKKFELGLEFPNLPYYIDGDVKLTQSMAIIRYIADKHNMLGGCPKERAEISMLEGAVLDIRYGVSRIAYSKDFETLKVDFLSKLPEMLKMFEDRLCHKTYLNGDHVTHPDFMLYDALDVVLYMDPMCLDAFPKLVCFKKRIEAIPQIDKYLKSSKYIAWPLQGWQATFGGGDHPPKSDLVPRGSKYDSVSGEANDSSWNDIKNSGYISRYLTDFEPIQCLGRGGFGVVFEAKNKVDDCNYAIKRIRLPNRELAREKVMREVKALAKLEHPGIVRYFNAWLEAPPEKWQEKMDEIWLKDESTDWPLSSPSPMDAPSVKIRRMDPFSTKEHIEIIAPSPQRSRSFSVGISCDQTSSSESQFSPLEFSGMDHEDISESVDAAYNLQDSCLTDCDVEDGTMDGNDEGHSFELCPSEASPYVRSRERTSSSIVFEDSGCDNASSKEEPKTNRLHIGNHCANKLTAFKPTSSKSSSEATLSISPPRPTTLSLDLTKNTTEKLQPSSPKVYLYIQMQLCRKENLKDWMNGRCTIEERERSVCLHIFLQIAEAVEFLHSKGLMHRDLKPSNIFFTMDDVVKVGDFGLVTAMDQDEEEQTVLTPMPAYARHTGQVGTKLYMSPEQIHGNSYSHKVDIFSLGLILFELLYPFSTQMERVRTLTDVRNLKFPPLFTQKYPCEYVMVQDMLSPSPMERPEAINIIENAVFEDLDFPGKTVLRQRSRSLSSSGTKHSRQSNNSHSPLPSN
Outline: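 Coupled pyruvate kinase/lactate dehydrogenase readout of ATP hydrolysis via NADH oxidation (A340), 10 nM PERK, 0.25 mg/mL myelin basic protein, 1 mM ATP, pH 7.5 Tris/MgCl2 buffer, 1% DMSO. Absorbance followed 6 h at 30° C; rate from the 2-3 h window, normalised to no-compound and known-inhibitor controls, IC50 fitted.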

[6] = tested on: ATF4 in CCRF-CEM leukemia cells (PERK); assay: CCRF-CEM TG ATF4 ELISA, phenotypic assay for cellular inhibition of PERK preactivated by thapsigargin; format: cell-based; details: Homo sapiens; Thapsigargin (1 μM) stimulated CCRF-CEM cells
Procedure: CCRF-CEM leukemia cells (catalog #CCL-116) were obtained from the American Type Culture Collection (ATTC, Manassas, VA). Briefly, cells were grown in RPMI-1640 medium supplemented with 10% heat-inactivated fetal bovine serum (Invitrogen, Carlsbad, CA) and 1% Penicillin/Streptomycin/L-Glutamine at 37° C., 5% CO2, and 95% humidity. Cells were expanded until reaching one million cells per mL at which time they were subcultured or harvested for assay use. One million five hundred thousand cells per well in 1 mL complete growth medium were dispensed into 12-well plates and incubated overnight. A serial dilution of test compound was added and cells were incubated at 37° C., 5% CO2, and 95% for three hours, then 1 μM thapsigargin was added and cells were incubated for an additional hour at 37° C., 5% CO2, and 95%. Cells were lysed then ATF4 levels were measured using an ELISA assay (Proteintech, Rosemont, IL). Absorbance was measured at 450 nm and 544 nM using a Synergy2 or equivalent reader (Biotek, Winooski VT). Data was analyzed using PRISM software (Graphpad, San Diego, CA) to calculate IC50 values.

Row | Compound | IC50 [1] [nM] | IC50 [2] [nM] | IC50 [3] [nM] | IC50 [4] [nM] | IC50 [5] [nM] | IC50 [6] [nM]
1 | CNc1ncc2cc(-c3cc(NS(=O)(=O)c4cc(Cl)cnc4OC)ccc3C)cnc2n1 [Example 30] | ≤ 100 | ≤ 100 | ≤ 100 | ≤ 100 | 100 to 500 | 1000 to 10000
2 | CNc1cc2nc(C)c(-c3cc(NS(=O)(=O)c4cc(Cl)cc(CO)c4Cl)c(F)cc3Br)cc2cn1 [Example 14] | 1000 to 10000 | 100 to 500 | ≤ 100 | 500 to 1000 | 100 to 500 | 1000 to 10000
3 | COc1ncc(Cl)cc1S(=O)(=O)Nc1cccc(-c2ccc3nc(N)ncc3c2)c1F [Example 33] | 100 to 500 | ≤ 100 | ≤ 100 | ≤ 100 | ≤ 100 | 1000 to 10000
4 | CNc1nc2nc(NC3CC3)ncc2cc1-c1cccc(NS(=O)(=O)c2cc(Cl)cnc2OC)c1F [Example 111] | 100 to 500 | 100 to 500 | ≤ 100 | ≤ 100 | 100 to 500 | 1000 to 10000
5 | COc1ncc(Cl)cc1S(=O)(=O)Nc1cccc(-c2cnc3nc(Nc4cnn(C)c4)ncc3c2)c1 [Example 59] | ≤ 100 | ≤ 100 | ≤ 100 | ≤ 100 | 100 to 500 | 1000 to 10000
6 | CNc1ncc2cc(-c3cccc(NS(=O)(=O)c4cc(Cl)cnc4OC)c3)c(N)nc2n1 [Example 64] | ≤ 100 | ≤ 100 | ≤ 100 | ≤ 100 | 100 to 500 | 1000 to 10000
7 | CNc1ncc2cc(-c3cccc(NS(=O)(=O)c4cc(Cl)cnc4OC)c3F)c(NCCOC)nc2n1 [Example 100] | ≤ 100 | ≤ 100 | ≤ 100 | ≤ 100 | 100 to 500 | 1000 to 10000
8 | COc1ncc(Cl)cc1S(=O)(=O)Nc1cc(F)cc(-c2cc3cnc(N)nc3nc2N)c1 [Example 92] | ≤ 100 | ≤ 100 | ≤ 100 | ≤ 100 | ≤ 100 | 1000 to 10000
9 | CNc1ncc2cc(-c3cccc(NS(=O)(=O)c4cc(Cl)cnc4OC)c3C)c(C)nc2n1 [Example 51] | ≤ 100 | ≤ 100 | ≤ 100 | ≤ 100 | 100 to 500 | 1000 to 10000
10 | CNc1ncc2cc(-c3cccc(NS(=O)(=O)c4cc(Cl)cnc4OC)c3C#N)c(C)nc2n1 [Example 95] | 100 to 500 | ≤ 100 | ≤ 100 | 100 to 500 | 100 to 500 | 1000 to 10000
11 | CNc1ncc2cc(-c3cccc(NS(=O)(=O)c4cc(Cl)cc(C(=O)OC)c4Cl)c3F)c(NC)nc2n1 [Example 102] | ≤ 100 | ≤ 100 | ≤ 100 | ≤ 100 | 100 to 500 | 1000 to 10000
12 | CNc1cc2nc(C)c(-c3cc(NS(=O)(=O)c4cc(Cl)cnc4OC)cc(F)c3F)cc2cn1 [Example 143] | ≤ 100 | ≤ 100 | ≤ 100 | ≤ 100 | ≤ 100 | 1000 to 10000
13 | CNc1cc2nc(C)c(-c3ccc(F)c(NS(=O)(=O)c4cc(Cl)cc(CO)c4Cl)c3)cc2cn1 [Example 19] | 100 to 500 | ≤ 100 | ≤ 100 | ≤ 100 | ≤ 100 | 1000 to 10000
14 | CCNc1ncc2cc(-c3cccc(NS(=O)(=O)c4cc(Cl)cnc4OC)c3F)c(NC)nc2n1 [Example 115] | ≤ 100 | ≤ 100 | ≤ 100 | ≤ 100 | ≤ 100 | 1000 to 10000
15 | CNc1cc2nc(C)c(-c3cccc(NS(=O)(=O)c4cc(Cl)cnc4NC)c3F)cc2cn1 [Example 78] | ≤ 100 | ≤ 100 | ≤ 100 | ≤ 100 | ≤ 100 | 500 to 1000
16 | CNc1nc2nc(NC(C)=O)ncc2cc1-c1cccc(NS(=O)(=O)c2cc(Cl)cnc2OC)c1F [Example 158] | ≤ 100 | ≤ 100 | ≤ 100 | ≤ 100 | 100 to 500 | 1000 to 10000
17 | CNc1ncc2cc(-c3cc(NS(=O)(=O)c4cc(Cl)cnc4OC)c(F)cc3C)c(C)nc2n1 [Example 17] | 1000 to 10000 | 100 to 500 | 500 to 1000 | 1000 to 10000 | 100 to 500 | 1000 to 10000
18 | CNc1cc2ncc(-c3cccc(NS(=O)(=O)c4cc(Cl)cnc4OC)c3F)cc2cn1 [Example 56] | ≤ 100 | ≤ 100 | 100 to 500 | ≤ 100 | ≤ 100 | 500 to 1000
19 | COc1nc2nc(N)ncc2cc1-c1ccnc(NS(=O)(=O)c2cc(Cl)cnc2OC)c1F [Example 135] | 500 to 1000 | 100 to 500 | ≤ 100 | 1000 to 10000 | 100 to 500 | 1000 to 10000
20 | CNc1ncc2cc(-c3cc(NS(=O)(=O)c4cc(Cl)cnc4OC)ccc3C)c(C)nc2n1 [Example 53] | ≤ 100 | ≤ 100 | ≤ 100 | ≤ 100 | 100 to 500 | 1000 to 10000
21 | CNc1ncc2cc(-c3cc(NS(=O)(=O)c4cc(Cl)cnc4OC)ccc3F)c(NC)nc2n1 [Example 39] | 100 to 500 | ≤ 100 | ≤ 100 | 100 to 500 | 100 to 500 | 1000 to 10000
22 | CNc1cc2nc(NC)c(-c3cccc(NS(=O)(=O)c4cc(Cl)cnc4OC)c3F)cc2cn1 [Example 114] | ≤ 100 | ≤ 100 | ≤ 100 | 100 to 500 | ≤ 100 | 1000 to 10000
23 | COc1nc2nc(N)ncc2cc1-c1cc(F)cc(NS(=O)(=O)c2cc(Cl)cnc2OC)c1 [Example 93] | 100 to 500 | ≤ 100 | ≤ 100 | 100 to 500 | 100 to 500 | 1000 to 10000
24 | CNc1ncc2cc(-c3c(F)ccc(NS(=O)(=O)c4cc(Cl)cnc4OC)c3F)c(C)nc2n1 [Example 27] | ≤ 100 | ≤ 100 | ≤ 100 | ≤ 100 | ≤ 100 | 1000 to 10000
